Tested on: SEM cells
Experiment: cell viability relative to DMSO control; higher = less cytotoxic
Conditions: 48 h
Method in brief: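 NOMO1, SEM and P12-Ichikawa leukemia cells spent at least four passages adapting to each medium before use. They were seeded at 500 cells/well (NOMO1, SEM) or 1000 cells/well (P12-Ichikawa) in 5 μl in 1536-well plates and pin-dosed with library compounds in DMSO at 11 threefold steps from 47 μM down to 0.79 nM. After 48 h at 37°C, CellTiter-Glo One luminescence was read. Viability is reported as a percentage of the DMSO wells on each plate, with cell-free wells as background.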

[1] = HPLM + 10% dialyzed FBS, 0.000781 µM
[2] = HPLM + 10% dialyzed FBS, 0.00234 µM
[3] = HPLM + 10% dialyzed FBS, 0.00702 µM
[4] = HPLM + 10% dialyzed FBS, 0.0211 µM
[5] = HPLM + 10% dialyzed FBS, 0.0632 µM
[6] = HPLM + 10% dialyzed FBS, 0.19 µM
[7] = HPLM + 10% dialyzed FBS, 0.569 µM
[8] = HPLM + 10% dialyzed FBS, 1.71 µM
[9] = HPLM + 10% dialyzed FBS, 5.12 µM
[10] = HPLM + 10% dialyzed FBS, 15.4 µM
[11] = HPLM + 10% dialyzed FBS, 46.1 µM
[12] = RPMI 5 mM glucose + 10% FBS, 0.000781 µM
[13] = RPMI 5 mM glucose + 10% FBS, 0.00234 µM
[14] = RPMI 5 mM glucose + 10% FBS, 0.00702 µM
[15] = RPMI 5 mM glucose + 10% FBS, 0.0211 µM
[16] = RPMI 5 mM glucose + 10% FBS, 0.0632 µM
[17] = RPMI 5 mM glucose + 10% FBS, 0.19 µM
[18] = RPMI 5 mM glucose + 10% FBS, 0.569 µM
[19] = RPMI 5 mM glucose + 10% FBS, 1.71 µM
[20] = RPMI 5 mM glucose + 10% FBS, 5.12 µM
[21] = RPMI 5 mM glucose + 10% FBS, 15.4 µM
[22] = RPMI 5 mM glucose + 10% FBS, 46.1 µM
[23] = RPMI 5 mM glucose + 10% dialyzed FBS, 0.000781 µM
[24] = RPMI 5 mM glucose + 10% dialyzed FBS, 0.00234 µM
[25] = RPMI 5 mM glucose + 10% dialyzed FBS, 0.00702 µM
[26] = RPMI 5 mM glucose + 10% dialyzed FBS, 0.0211 µM
[27] = RPMI 5 mM glucose + 10% dialyzed FBS, 0.0632 µM
[28] = RPMI 5 mM glucose + 10% dialyzed FBS, 0.19 µM
[29] = RPMI 5 mM glucose + 10% dialyzed FBS, 0.569 µM
[30] = RPMI 5 mM glucose + 10% dialyzed FBS, 1.71 µM
[31] = RPMI 5 mM glucose + 10% dialyzed FBS, 5.12 µM
[32] = RPMI 5 mM glucose + 10% dialyzed FBS, 15.4 µM
[33] = RPMI 5 mM glucose + 10% dialyzed FBS, 46.1 µM

SMILES | cell viability [1] [%] | cell viability [2] [%] | cell viability [3] [%] | cell viability [4] [%] | cell viability [5] [%] | cell viability [6] [%] | cell viability [7] [%] | cell viability [8] [%] | cell viability [9] [%] | cell viability [10] [%] | cell viability [11] [%] | cell viability [12] [%] | cell viability [13] [%] | cell viability [14] [%] | cell viability [15] [%] | cell viability [16] [%] | cell viability [17] [%] | cell viability [18] [%] | cell viability [19] [%] | cell viability [20] [%] | cell viability [21] [%] | cell viability [22] [%] | cell viability [23] [%] | cell viability [24] [%] | cell viability [25] [%] | cell viability [26] [%] | cell viability [27] [%] | cell viability [28] [%] | cell viability [29] [%] | cell viability [30] [%] | cell viability [31] [%] | cell viability [32] [%] | cell viability [33] [%]
O=C(N[C@H]1CN2CCC1CC2)c1ccc(Cl)cc1 | 89.3 | 96.5 | 95.5 | 99.8 | 98.7 | 87.4 | 96.3 | 105 | 102 | 98.5 | 84.4 | 84 | 92.2 | 99.5 | 87.8 | 96.1 | 95.9 | 101 | 99.5 | 93.3 | 88.6 | 60.2 | 93.2 | 98.9 | 94.8 | 94.3 | 104 | 116 | 96.1 | 93.2 | 94.1 | 107 | 76.1
N#C[C@@H]1C[C@@H]2C[C@@H]2N1C(=O)[C@@H](N)C12CC3CC(CC(O)(C3)C1)C2 | – | – | – | – | – | – | – | – | – | – | – | 113 | 109 | 105 | 104 | 108 | 96.6 | 102 | 87.5 | 79 | 82.2 | 79.4 | 118 | 115 | 110 | 110 | 111 | 110 | 115 | 108 | 108 | 117 | 94.5
CC[P](CC)(CC)=[Au][S][C@@H]1O[C@H](COC(C)=O)[C@@H](OC(C)=O)[C@H](OC(C)=O)[C@H]1OC(C)=O | – | – | – | – | – | – | – | – | – | – | – | 106 | 120 | 117 | 122 | 115 | 108 | 89.8 | 5.13 | 4.94 | 3.95 | 3.2 | 111 | 106 | 93.8 | 108 | 106 | 113 | 103 | 5.2 | 5.93 | 4.45 | 2.9
O=C(Nc1ccncc1)C(=O)c1cn(Cc2ccc(Cl)cc2)c2ccccc12 | 92.5 | 94 | 91.7 | 81.9 | 54.8 | 31.5 | 29.4 | 24.7 | 25.7 | 28.5 | 26.3 | 130 | 105 | 122 | 114 | 57.7 | 33 | 17.8 | 18.2 | 18.7 | 22.2 | 28 | 107 | 88.4 | 95.3 | 75.9 | 58.5 | 27.7 | 23.9 | 20.9 | 26.6 | 25.3 | 30.5
CN(C)Cc1cccc(N/C(=C2\C(=O)Nc3cc(C(=O)N(C)C)ccc32)c2ccccc2)c1 | 75.8 | 88.4 | 100 | 98.6 | 112 | 101 | 108 | 97.2 | 90.7 | 55 | 2.72 | 92.4 | 87.5 | 102 | 104 | 109 | 114 | 104 | 102 | 71.2 | 7.07 | 1.12 | 74.2 | 103 | 96.5 | 108 | 103 | 110 | 111 | 115 | 85.6 | 26.6 | 1.38
O=C(O)CCc1ccc(NCc2cccc(Oc3ccccc3)c2)cc1 | 62.4 | 93.7 | 114 | 103 | 112 | 108 | 98.7 | 122 | 121 | 109 | 123 | 74.2 | 106 | 108 | 90.6 | 124 | 105 | 99.3 | 118 | 110 | 120 | 95.2 | 71.6 | 106 | 126 | 116 | 109 | 112 | 121 | 115 | 127 | 131 | 128
COc1ccccc1OCC(O)CN1CCN(CC(=O)Nc2c(C)cccc2C)CC1 (configuration not stated) | 81.9 | 101 | 98 | 121 | 126 | 123 | 111 | 118 | 136 | 130 | 136 | 104 | 135 | 122 | 128 | 134 | 148 | 123 | 142 | 134 | 129 | 131 | 115 | 128 | 114 | 136 | 125 | 135 | 137 | 121 | 132 | 130 | 126
CC=CC1=C(C(=O)O)N2C(=O)[C@@H](NC(=O)[C@H](N)c3ccc(O)cc3)[C@H]2SC1.O | 71.1 | 70.5 | 79.2 | 92.5 | 91.4 | 81.3 | 90.1 | 83.9 | 72.8 | 91.6 | 82.1 | 86.4 | 96.4 | 93.8 | 97.7 | 90.9 | 92.9 | 98.8 | 115 | 86.6 | 105 | 94.6 | 84.8 | 97 | 98.4 | 115 | 109 | 86.1 | 110 | 110 | 84.7 | 112 | 114

Source: the supplement of paper PMC11451515
